Here are results for 90 compounds from PubChem BioAssay AID743395 (Broad Institute, 2014).

The structures appear in SMILES notation.

For this test, the system named is HepG2 viability, CellTiter-Glo ATP luminescence, 72 h. Nature of the test: HepG2 cell cytotoxicity, dose response, cytotoxicity control, CellTiter-Glo luminescence, cherry-pick, set 2 (AID 743395). A general note: In ATP-based viability assays light output follows the ATP content of the culture.

As to `Cc1ccc2cc(CN(CC3CCCO3)C(=S)Nc3ccccc3)c(=O)[nH]c2c1C` (stereo not given), the AC35 was 14.7 µM.

`CCC(=O)N1CC2(CCN(Cc3ccc(Cl)cc3)CC2)c2c([nH]c3cc(OC)ccc23)[C@H]1CO`: the AC35 is 9.3 µM.

For `O=C(Nc1ccccc1)N1CCCCN2[C@@H](CO)[C@H](c3ccc(C#Cc4ccccc4)cc3)[C@@H]2C1`, the AC35 is 10.9 µM.

For `O=C(Nc1ccc(Br)cn1)c1cccc2ccccc12`, the AC35 is 5.99 µM.

`COc1ccc(-c2ccnc(-c3ccc(O)cc3)n2)cc1`: the AC35 was 10.1 µM.

On to `CCN1/C(=C\c2ccc3cc(C)ccc3[n+]2CC)Sc2cc(C)c(C)cc21`, for which the AC35 is 3.19 µM.

On to `CN1c2ccc(-c3ccc(F)cc3)cc2[C@H]2[C@H](CCN2S(=O)(=O)c2cccc(F)c2)[C@H]1CO`, for which the AC35 was 17.2 µM.

With `COc1cccc(-c2cnc3c(NC(C)=O)cc(-c4cc(F)ccc4OC)cn23)c1`, the AC35 is 12.5 µM.

For `CN1c2ccc(-c3ccc(F)cc3)cc2[C@H]2[C@H](CCN2S(=O)(=O)c2ccc(F)cc2)[C@@H]1CO`, the AC35 is 20.9 µM.

Take `Cc1nc(N)[nH]c(=O)c1CCCNS(=O)(=O)c1ccc([N+](=O)[O-])cc1`: the AC35 was 17.1 µM.

As to `O=C1c2ccccc2C(=O)c2c1cccc2N(CCO)CCO`, the AC35 was 16.7 µM.

With `Cc1cc(C)c2nc(Cl)c(CN(Cc3ccco3)C(=O)Nc3ccccc3C)cc2c1`, the AC35 is 5.84 µM.

For `O=C1NC(=O)C(=Cc2c(Cl)cccc2Cl)C(=O)N1`, the AC35 is 22.2 µM.

As for `CN(C)CCNC(=O)c1ccc(Cl)c2cc3ccccc3nc12`, the AC35 is 2.59 µM.

As for `COc1ccc(Nc2nc(-c3sc(C)nc3C)cs2)c(OC)c1`, the AC35 was 10 µM.

For `COc1ccc(C(=O)OCC(=O)N2C(C)CCCC2C)cc1S(=O)(=O)N1CCOCC1` (stereo not given), the AC35 is 18.7 µM.

On to `CNc1ccc2c3c(cccc13)C(=O)N(C)C2=O`, for which the AC35 was 15.7 µM.

Regarding `C=CCN1c2ccccc2[C@]23C[C@@H](C(=O)OC)N(C(=O)c4cccs4)C2=NC(C(=O)OC)=C(C(=O)OC)[C@H]13`, the AC35 is 19.1 µM.

In the case of `C[C@H]1CN([C@@H](C)CO)S(=O)(=O)c2ccc(C#CC3CCCCC3)cc2O[C@H]1CN(C)Cc1cccnc1`, the AC35 is 22.2 µM.

As for `C[C@H]1CN([C@@H](C)CO)S(=O)(=O)c2ccc(-c3ccc(C#N)cc3)cc2O[C@@H]1CN(C)Cc1ccccn1`, the AC35 is 5.26 µM.

With `O=C(O)c1ccccc1-c1c2cc(I)c(=O)c(I)c-2oc2c(I)c(O)c(I)cc12`, the AC35 is 8.34 µM.

Consider `CCN(CC)CCn1nc2c3c(cccc3c1=O)-c1ccccc1-2`, for which the AC35 is 2.82 µM.

As for `CCOC(=O)c1cc2c(=Cc3ccc(N(C)C)cc3)c3ccccc3n2[n+]1C`, the AC35 is 16.6 µM.

For the compound `CC(=O)Nc1sc2c(c1-c1nc3ccccc3s1)CN(C(C)C)CC2`, the AC35 is 3.4 µM.

`Cc1c(C(=O)N/N=C/c2c(O)ccc3ccccc23)nnn1-c1nonc1N`: the AC35 is 1.32 µM.

On to `COc1ccc(CC(=O)NCc2ccc(-n3cccc3)cc2)cc1OC`, for which the AC35 was 9.29 µM.

As to `CCOc1ccc2[nH]c(C(=O)N/N=C/c3ccc(OC)cc3)cc2c1`, the AC35 is 4.77 µM.

`CC(=O)NC(c1ccc(Cl)cc1Cl)c1ccc2cccnc2c1O` (stereo not given): the AC35 was 0.921 µM.

Regarding `Nc1ccc2c3c(cccc13)C(=O)N(c1ccccc1)C2=O`, the AC35 is 10.7 µM.

As to `OC[C@@H]1CN(Cc2ccc(-c3ccccc3)cc2)C[C@H](n2cnc3c(NC4CC4)ncnc32)O1`, the AC35 was 19.3 µM.

With `NS(=O)(=O)c1ccc(CCNc2nn3c(-c4cccc(OC(F)(F)F)c4)cnc3s2)cc1`, the AC35 was 16.7 µM.

As to `O=[N+]([O-])c1ccc(/C=C/C2=NN(c3ccccc3)C(c3ccco3)C2)o1` (stereo not given), the AC35 was 15.1 µM.

`Cc1ccc(C)c(C2NC(=O)c3ccccc3N2)c1` (stereo not given): the AC35 was 5.13 µM.

Regarding `Cc1ccc2c(C)c3ccc4ccccc4c3c[n+]2c1`, the AC35 is 5.47 µM.

Take `O=C(N/N=C\c1c(O)ccc2ccccc12)c1cncc(Br)c1`: the AC35 is 1.18 µM.

As for `Cc1c(C2Nc3ccccc3C2C)[nH]c2ccccc12` (stereo not given), the AC35 is 6.86 µM.

For the compound `COCCCN=C1NN=C(c2cc(C)n(Cc3ccco3)c2C)CS1`, the AC35 is 6.71 µM.

As to `Oc1ccc2ccccc2c1N=Nc1nccs1`, the AC35 was 11.3 µM.

For the compound `Cc1ncc(CO)c(/C=N/Nc2ccc(C(F)(F)F)cn2)c1O`, the AC35 was 4.63 µM.

Take `Cc1cc2[nH]c3c(c[n+](C)c4ccccc34)c2cc1C`: the AC35 is 2.58 µM.

Regarding `O=C1/C(=C\c2cc(Cl)c(O)c(Cl)c2)SC(=S)N1Cc1ccccc1`, the AC35 is 15.4 µM.

On to `COc1nc(-c2ccccc2)cc(-c2ccc3c(c2)OCO3)c1C#N`, for which the AC35 is 8.32 µM.

On to `Oc1ccc(/C=N/Nc2nc(-c3ccccc3F)nc3ccccc23)c(O)c1`, for which the AC35 is 15.6 µM.

As to `O=C1C=C(NCCc2cc(Br)c(O)c(Br)c2)C(=O)c2ncccc21`, the AC35 was 6.95 µM.

For `CC1CCN(C(=O)C2COc3ccccc3O2)CC1` (stereo not given), the AC35 was 21.8 µM.

On to `CC(=O)Nc1cccc(-c2ccnc3c2CC(C)(C(=O)NCc2cccs2)O3)c1` (stereo not given), for which the AC35 was 2.49 µM.

On to `COc1cccc(/C=N/NC(=O)C(=O)Nc2ccccc2OC(F)(F)C(F)F)c1O`, for which the AC35 was 15 µM.

Turning to `COc1cc(/C=C2/SC(=Nc3ccc(O)cc3)NC2=O)cc(OC)c1O`, the AC35 is 14.7 µM.

With `O=C1c2cccc(NCCCNCCO)c2C(=O)c2cccc(NCCCNCCO)c21`, the AC35 is 3.61 µM.

In the case of `Cc1ccc(-c2csc3ncn(CC#N)c(=O)c23)cc1C`, the AC35 is 17.9 µM.

In the case of `CC(C)(C)c1cc(C(=O)NN)n(Cc2ccc(Cl)cc2Cl)n1`, the AC35 is 18.7 µM.

`COc1cc(OC)cc(C(=O)c2c(C)c(C#N)c3ccccn23)c1`: the AC35 was 9.29 µM.

As to `CC12CCC(CC1O)C2C(=O)O` (stereo not given), the AC35 was 17.9 µM.

`C[C@@H]1O[C@@H](O[C@@H]2C=C3CC[C@@H]4C(CC[C@]5(C)[C@@H](c6ccc(=O)oc6)CC[C@]45O)[C@@]3(C)CC2)[C@H](O)[C@H](O)[C@H]1O` (stereo not given in full): the AC35 is 0.116 µM.

Turning to `CC/C=C/CC(=O)N[C@@H](c1ccccc1)[C@@H](O)C(=O)O[C@H]1C[C@@]2(O)[C@@H](OC(=O)c3ccccc3)C3[C@](C)(C(=O)[C@H](OC(C)=O)C(=C1C)C2(C)C)[C@@H](O)C[C@H]1OC[C@@]31OC(C)=O` (stereo not given in full), the AC35 was 1.98 µM.

For the compound `CCN(CC)c1ccc(/C=N/NC(=O)c2cnccn2)cc1`, the AC35 was 6.68 µM.

As to `O=C(CN1CCCC1)N/N=C/c1c(O)ccc2ccccc12`, the AC35 is 12.6 µM.

Take `O=C(C1CCCC1)N1CC(=O)N2[C@H](CO)[C@@H](c3ccc(-c4ccccc4F)cc3)[C@@H]2C1`: the AC35 is 16.3 µM.

Regarding `CCN(CC)c1ccc(/C=N/NC(=O)c2ccco2)c(O)c1`, the AC35 was 1.13 µM.

On to `COc1ccc(-c2csc(NC(=S)NC(=O)/C=C/c3ccco3)n2)cc1OC`, for which the AC35 is 14.3 µM.

As to `N#C/C(=C/c1ccc(N2CCCCC2)o1)C(=O)Nc1ccc2ccccc2c1`, the AC35 is 21.1 µM.

For `Cc1ccc(N(C)S(=O)(=O)c2ccc(-c3cnc(C4CC4)o3)cc2)cc1`, the AC35 is 8.88 µM.

With `Cc1ccc(CNC(=O)c2ccc3c(=O)c(O)c(-c4ccc(C)cc4)[nH]c3c2)cc1`, the AC35 was 1.9 µM.

For `CCCC(=O)NC(c1ccc(Cl)cc1)c1ccc2cccnc2c1O` (stereo not given), the AC35 was 1.77 µM.

For `Cc1ccc(-c2ccc3c(c2)O[C@H](CN(C)Cc2ccccn2)[C@@H](C)CN([C@@H](C)CO)S3(=O)=O)cc1`, the AC35 is 16.8 µM.

In the case of `COc1cc(OC)cc(C(=O)N[C@H](C(=O)Nc2nc3ccccc3[nH]2)C(C)C)c1`, the AC35 is 10.2 µM.

For the compound `O=C(Cc1ccccc1)N1CC(=O)N2[C@H](C1)[C@@H](c1ccc(C#Cc3ccccc3)cc1)[C@@H]2CO`, the AC35 was 20.3 µM.

Take `CCOC(=O)c1ccc(Nc2sc(C(=O)c3cccc([N+](=O)[O-])c3)c(N)c2C#N)cc1`: the AC35 is 6.7 µM.

`COc1cc(-c2nccc3cc4c(cc23)OCO4)cc(OC)c1OC`: the AC35 was 5.6 µM.

On to `C=C1C(=O)[C@]23C[C@H]1CC[C@H]2[C@]1(C)[C@@H](OC(C)=O)CC[C@@](C)(C(=O)O)[C@H]1C[C@@H]3O`, for which the AC35 was 11.3 µM.

Consider `COc1ccccc1N=C1SC(C(=O)Nc2cccc(Cl)c2Cl)C(N)=C1C(N)=O` (stereo not given), for which the AC35 was 18.4 µM.

In the case of `Cc1cc(Br)cc(/C=N/NC(=O)c2ccc3c(c2)OCO3)c1O`, the AC35 was 8 µM.

Consider `COc1ccc(C2=Nn3c(nnc3-c3ccccc3OC)SC2)cc1OC1CCOC1` (stereo not given), for which the AC35 was 7.54 µM.

In the case of `C[C@@H]1CN([C@H](C)CO)S(=O)(=O)c2ccc(-c3ccccc3)cc2O[C@H]1CN(C)Cc1ccccn1`, the AC35 is 16.7 µM.

Turning to `CCC(COC(=O)c1cc(OC)c(OC)c(OC)c1)(c1ccccc1)N(C)C` (stereo not given), the AC35 is 18.4 µM.

For the compound `COc1cccc(S(=O)(=O)N2C[C@@H]3N[C@H](C2)C3c2ccc(-c3ccccc3F)cc2)c1` (stereo not given in full), the AC35 is 11.3 µM.

Turning to `CC1(C(=O)NCc2cccs2)Cc2c(-c3ccc4c(c3)OCO4)ccnc2O1` (stereo not given), the AC35 was 16.4 µM.

For the compound `Nc1sc(-c2ccccc2)cc1-c1n[nH]c(=S)n1C1CCCCC1`, the AC35 is 7.54 µM.

In the case of `Cc1ccc(-n2nnnc2SCC(=O)NC(C(=O)O)(c2ccccc2)c2ccccc2)cc1C`, the AC35 is 15 µM.

As for `O=[N+]([O-])c1ccc(Sc2cccc[n+]2[O-])c2nonc12`, the AC35 was 5.72 µM.

As to `Cc1ccc2c(c1)CCCN2C(=O)CCc1nc2ccccc2c(=O)[nH]1`, the AC35 is 7.93 µM.

`O=S(=O)(Cc1ccc(Cl)cc1Cl)c1ccc(Cl)cc1`: the AC35 is 11.3 µM.

With `Cc1noc(C)c1COc1ccc(C(=O)NNC(=O)c2ccccc2)cc1`, the AC35 is 12.2 µM.

With `O=C1CN(S(=O)(=O)Cc2ccccc2)C[C@@H]2[C@@H](c3ccc(C#Cc4cccc(F)c4)cc3)[C@H](CO)N12`, the AC35 is 14.1 µM.

Consider `Cc1cccc(NC(=S)N/N=C/c2cccc(O)c2)c1C`, for which the AC35 is 12.2 µM.

Take `CCOC(=O)c1c(C)[nH]c(C(=O)N/N=C/c2ccc(OC)c(OC)c2)c1C`: the AC35 was 6.01 µM.

`O=C(N/N=C/c1c(O)ccc2ccccc12)c1ccc(Br)o1`: the AC35 was 1.18 µM.

Turning to `COc1cccc(N=Nc2ccc3cccnc3c2O)c1`, the AC35 is 4.42 µM.

For `Cc1cc2c(cc1S(=O)(=O)Nc1ccc(F)cc1)n(C)c(=O)c(=O)n2C`, the AC35 is 18.2 µM.

Turning to `C[C@@H]1CN([C@@H](C)CO)C(=O)c2cc(C#CCN(C)C)cnc2O[C@H]1CN(C)Cc1ccc(-c2ccccc2)cc1`, the AC35 was 11.5 µM.
